# According to US20020110838A1, “Methods for assessing muscle protein wasting and therapeutics therefor” (priority 2000, published 2002):
# Entries after “also recorded” stand apart in the source; their conditions may differ. Where a SMILES comes first, the peptide text is derived from it. The star is where a group is joined. Cbz = O=C(OCc1ccccc1)*
# Assays:
# 14 kDa actin fragment [1] = assay: Actin cleavage in L6 cell extracts incubated at 37° C. (immunoblot of 14 kDa actin fragment); format: biochemical, rat
# Protocol: The cell extracts were incubated at 37° C. for various times before proteins were separated and subjected to Western blot analysis using commercially available, affinity-purified, polyclonal antibodies directed against the carboxy-terminus of actin.
# To support this conclusion, we incubated lysates of L6 muscle cells at 37° C. with recombinant caspase 3 and then used Western blotting and detected the appearance of the actin fragment.
# To test for involvement of the proteasome, we added MG132, an inhibitor of proteasome activity (ProScript, Inc. Cambridge, Mass.), and ATP to cell extracts before the 3 hr incubation at 37° C..
# L6 muscles cells were washed and collected in ice cold PBS. Cells were swelled in hypotonic buffer (5 mM Tris pH 8.0, 1 mM 2-mercaptoethanol, 1% glycerol, 1 mM EDTA, 1 mM EGTA containing 0.1 mM phenylmethanesulfonyl fluoride (PMSF), leupeptin (5 μg/ml) and aprotinin (5 μg/ml) on ice for 30 minutes, and the cells were then gently homogenized with twenty strokes of a dounce homogenizer, with the materials being kept on ice. Homogenates were centrifuged at 3500 rpm (about 2000×g) for 10 minutes to remove nuclei and cell debris.
# To assess for proteolytic cleavage of actin, extracts (20 μg of total protein) were incubated in 20 μl reaction volumes containing 25 mM Hepes (pH 7.5), 5 mM EDTA, 5 mM DTT for 3 h at 37° C. Reactions were terminated by adding Laemmli sample buffer, proteins were separated by SDS-PAGE, and immunoblot detection of actin fragments was carried out with an anti-actin antibody (Sigma).
# The proteins were then transferred to ECL hybond membranes, and blots were incubated with anti-actin antibodies (1:500 dilution) in 5% milk in TTBS for 2 hours at 37° C. Bound primary antibodies were detected with goat anti-rabbit IgG antibody conjugated with HRRP and analyzed with ECL Detection Kit.
# 14 kDa actin fragment [2] = assay: 14 kDa actin peptide in intact L6 cells, measured after lysis; format: cell-based, rat; parameters: 14 kDa actin peptide in intact L6 cells activated with staurosporine and treated with proteasome inhibitor: dose or concentration left out as unconfirmed
# Protocol: Actin cleavage was measured in lysates immediately after lysis.
# This fragment (and others) are then rapidly degraded by the ubiquitin-proteasome system. […] The cells were then lysed and tested for the presence of the 14 kDa actin peptide.
# caspase 3 = assay: Caspase 3 activation in L6 muscle cells (immunoblot); format: cell-based, rat; details: FIG. 4
# Text: The caspase-specific proteins were separated by SDS-PAGE and visualized by immunoblotting with polyclonal antibodies prepared in response to the N-terminus of caspase 3.
# Subsequently, proteins were separated and subjected to Western blot analysis using affinity-purified, polyclonal antibodies against the carboxy-terminus of actin (Sigma St. Louis, Mo.).
# L6 muscle cells [3] = assay: Apoptosis by Death ELISA / DNA fragmentation in L6 muscle cells; format: cell-based, rat; details: cultured L6 muscle cells, Death ELISA assay
# L6 muscle cells [4] = assay: Degradation of endogenous proteins in cell extracts (release of free tyrosine); format: cell-based, rat; details: 50 nM staurosporine 3 h; extracts 37° C. 3 h; exogenous ATP added
# Protocol: L6 muscle cells were treated as marked, and lysates were incubated at 37° C. for 3 hours in the presence or absence of ATP (2 mM). Degradation of endogenous protein was monitored by measuring release of acid-soluble tyrosine from cell protein.
# With this method, protein degradation in extracts of control cells was slightly less than that in extracts from staurosporine-treated cells. However, the 3 hour incubation at 37° C. could limit ATP and impair activity of the ubiquitin-proteasome system.
# Protein degradation in cell extracts was assessed by measuring the net release of free tyrosine because muscles neither synthesizes nor degrades this amino acid (18,19). For 3 hours, 50 μg of cell extract proteins were incubated at 37° C. in 0.1 ml of reaction buffer (20 mM Tris (pH 7.6), 2 mM DTT, 10 mM MgCl2, 100 mM KCl, 5% glycerol) with or without 2 MM ATP.
# Trichloroacetic acid (10% final concentration) was added and the amount of free tyrosine released from proteins was measured spectrofluorometrically. Alternatively, total cell protein can be labeled by growth in the presence of one or more radioactive amino acids, e.g., ^14C-labeled or ^3H-labeled, and solubilization of radioactive label can be measured with the use of liquid scintillation counting.
# 14 kDa actin fragment [5] = assay: Serum starvation-induced actin cleavage in L6 muscle cells; format: cell-based, rat; details: for serum starvation-induced actin cleavage: serum-starved L6 cells, 10 nM hormone added
# Protocol: Physiological conditions trigger caspase 3-mediated actin cleavage . To examine whether a catabolic condition that is known to accelerate protein degradation in muscle cells also involves actin cleavage, L6 muscle cells were activated by 24 h of serum starvation (0.5% FBS) and cell lysates were prepared. […] Additional evidence for involvement of apoptosis-associated pathways was obtained by activating L6 cells using the serum starvation procedure and then adding insulin or IGF I because either hormone can prevent serum starvation induced apoptosis (24,25).
# epitrochlearis muscles = assay: Protein degradation in incubated epitrochlearis muscles; parameters: species or system rat; details: epitrochlearis muscles in Krebs-Henseleit bicarbonate buffer with vs without inhibitor
# Protocol: Rats were treated with streptozotocin and compared to pair-fed, rats injected with saline as described (4,26). Crude muscle lysates were isolated from acutely diabetic and control rats and examined for the presence of the 14 kDa actin fragment. A significant amount of this actin fragment was present in the muscle of diabetic rats compared to results from control rats. Finally, epitrochlearis muscles were incubated in Krebs-Henseleit bicarbonate buffer with or without the addition of the cell-permeable inhibitor of caspase 3, Ac-DEVD-Cho.
molecule,measurement,setting,value
Nc1ncnc2c1ncn2[C@@H]1O[C@H](COP(=O)(O)OP(=O)(O)OP(=O)(O)O)[C@@H](O)[C@H]1O [ATP],amount of the 14 kDa peptide vs same extract without added ATP,"14 kDa actin fragment [1]; 2 mM ATP added to extracts from staurosporine-treated cells, 3 hr, 37° C.",significantly reduced
CC(C)C[C@@H](C=O)NC(=O)[C@H](CC(C)C)NC(=O)[C@H](CC(C)C)NC(=O)OCc1ccccc1 [MG132] (Cbz-Leu-Leu-Leu-aldehyde),amount of the 14 kDa actin peptide with proteasome inhibitor in presence of ATP,14 kDa actin fragment [1]; MG132 and ATP added to cell extracts before 3 hr incubation at 37° C.,greater amounts
same,14 kDa actin peptide in intact L6 cells activated with staurosporine and treated with proteasome inhibitor,14 kDa actin fragment [2]; 24 hr staurosporine plus MG 132,readily detected
same,"14 kDa actin fragment in intact L6 cells, agent alone","14 kDa actin fragment [2]; L6 cells incubated 24 hr with single agent, then lysed",only a small amount
CN[C@@H]1C[C@H]2O[C@@](C)([C@@H]1OC)n1c3ccccc3c3c4c(c5c6ccccc6n2c5c31)C(=O)NC4 [staurosporine],induction of caspase 3 activity,caspase 3,induces caspase 3 activity
same,activation of apoptosis,L6 muscle cells [3],activates apoptosis
same,tyrosine release by extracts from staurosporine-treated cells vs control cell extracts,L6 muscle cells [4],overall protein degradation is increased; also recorded: significantly higher
Ac-DEVD-Cho,accumulation of the 14 kDa actin fragment after serum starvation,"14 kDa actin fragment [5]; 24 h serum starvation (0.5% FBS), inhibitor added to cell lysate during incubation",blocked the accumulation
same,appearance of the 14 kDa actin fragment with caspase 3 inhibitor,"14 kDa actin fragment [1]; extracts of L6 cells treated with 10 nM staurosporine or serum starvation, 5 μM inhibitor for 3 hr",blocked the appearance of the actin fragment
same,reduction of the rate of muscle protein degradation,epitrochlearis muscles,30%
Arg-Ala,amount of the 14 kDa actin fragment vs incubation with ATP alone,"14 kDa actin fragment [1]; extracts of staurosporine-exposed L6 cells, 37° C., dipeptide (2 mM) and ATP",greater amount
IGF I,serum starvation-induced actin cleavage,14 kDa actin fragment [5],effectively blocked
insulin,serum starvation-induced actin cleavage,14 kDa actin fragment [5],effectively blocked
